The subject of the assay is SK-MEL-5 viability, ATP luminescence (CellTiter-Glo), 24 h. The assay is described as follows: cytotoxicity in parental SK-MEL-5 melanoma cells – cell-based, CellTiter-Glo, cherry-picked, set 3, orthogonal assay for MITF inhibitor project, dose response (AID 493240). A general note: Cellular ATP, detected with luciferase, serves as a proxy for viable cell number.
For `C#CCCc1ccccc1/C=[N+](/C)[O-]`, the AC50 was 20.5 µM. The figure for `CS(=O)(=O)c1ncc(Cl)c(C(=O)Nc2ccc3ccccc3c2)n1` is 18.3 µM; for `Cn1cccc1C(=O)NC(=O)COC(=O)c1ccc(S(C)(=O)=O)c([N+](=O)[O-])c1` it is 31.4 µM; for `CCOc1ccc(-n2c(-c3ccc(Br)cc3)c[n+]3c2CCCCC3)cc1` it is 20.5 µM. On to `CCOC(=O)c1ccc2c(c1)n(CC)c(/C=C/N(C)c1ccccc1)[n+]2CC`, for which the AC50 was 13.3 µM. Take `CC1(C)Cc2ccccc2C2=NNC(=O)C2=N1`: the half-maximal activity concentration (AC50) is 8.54 µM. The figure for `CCS(=O)(=O)c1ccc(N=Nc2ccc(O)c3ncccc23)c(OC)c1` is 33.5 µM; for `COc1ccc2oc(C(=O)Nc3ccc(S(=O)(=O)N(C)C4CCN(C)CC4)cc3)c(C)c2c1` it is 17.5 µM. As for `Cc1ccc(-n2cc(CNCCCn3ccnc3C)c(-c3ccc(F)cc3)n2)cc1`, the figure is 17.6 µM; as for `Cc1cc(C)c2nc(N3CCC(C(=O)NCCCN4CC(C)CC(C)C4)CC3)sc2c1` (stereo unspecified), 18.3 µM; as for `O=C(CCl)N(c1ccccc1)C1CCS(=O)(=O)C1` (stereo unspecified), 29.9 µM.

For orientation: AC50 means the midpoint of the concentration-response curve, whichever way the signal moves.
